For assay [1], the target named is Recombinant human MALT-1 (amino acids 340-824) (Homo sapiens (Human), UniProt Q9UDY8). The assay can be described thus: MALT-1 inhibition assay (fluorogenic substrate Ac-LRSR-Rh110-DP). The assay is classed as biochemical. Conditions: recombinant human MALT-1, substrate Ac-LRSR-Rh110-DP. A digest of the protocol:
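Reactions were started with fluorogenic substrate Ac-LRSR-Rh110-DP (10 μM final) against 3 nM enzyme and kept dark at 25° C for 60 minutes. IC50 values came from 4-parameter logistic fits of percent inhibition calculated from relative fluorescence units.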

Assay [2] has as its system IL-2 secretion by human effector memory T cells (TEM). Nature of the assay: Effector memory T cells IL-2 release assay. The assay is classed as cell-based. The note with it: T-cell; human CD4+ effector memory T cells, CD3/CD28 bead stimulation, 24 h; read-out: CD4TC IL2 IC50. A digest of the protocol:
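Human CD4+ effector memory T cells from healthy-donor buffy coats were stimulated with anti-CD3/CD28 Dynabeads and exposed to 10 semi-log compound doses (0.1% DMSO) for 24 h at 37 °C. Supernatant IL-2 was measured by HTRF, and IC50 came from a 4-parameter logistic fit to maximal IL-2. Viability was checked by flow cytometry.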

Sequence of Recombinant human MALT-1 (amino acids 340-824) (Q9UDY8 340-824): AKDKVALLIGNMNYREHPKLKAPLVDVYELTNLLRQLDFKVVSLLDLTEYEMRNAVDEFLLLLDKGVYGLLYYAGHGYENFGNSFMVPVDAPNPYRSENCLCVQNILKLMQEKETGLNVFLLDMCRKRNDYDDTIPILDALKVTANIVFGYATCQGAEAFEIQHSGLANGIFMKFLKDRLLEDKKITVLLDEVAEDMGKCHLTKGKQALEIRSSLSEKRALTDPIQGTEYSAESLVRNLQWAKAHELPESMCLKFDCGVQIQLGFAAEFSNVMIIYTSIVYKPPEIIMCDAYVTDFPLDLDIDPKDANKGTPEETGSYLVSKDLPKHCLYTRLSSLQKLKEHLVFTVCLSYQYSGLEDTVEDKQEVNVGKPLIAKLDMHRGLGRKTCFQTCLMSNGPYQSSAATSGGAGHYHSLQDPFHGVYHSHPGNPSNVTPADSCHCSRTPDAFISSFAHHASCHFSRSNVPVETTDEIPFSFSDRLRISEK

Take `CN(C(=O)[C@H]1CC[S@@](=N)(=O)CC1)[C@@H](c1ccc(N2CCC(C)(C)c3c2cnc2cc(Cl)nn32)cc1)C(F)(F)F` (relative stereo) [CPD0072784, (1rel-s,4rel-s)-N-[(1S)-1-(4-{4-chloro-13,13-dimethyl-2,3,7,10-tetraazatricyclo[7.4.0.0^2,6]trideca-1(9),3,5,7-tetraen-10-yl}phenyl)-2,2,2-trifluoroethyl]-1-imino-N-methyl-1-oxo-1λ^6-thiane-4-carboxamide]: the 50% inhibitory concentration (IC50) in assay [1] was found to be 0.074 µM; in assay [2], 0.056 µM.
On to `CN(C(=O)[C@@H]1COC(=O)N1C)[C@@H](c1ccc(N2CCCc3c2cnc2cc(Cl)nn32)cc1)C(F)(F)F` (relative stereo) [CPD0073571, (4rel-S)-N-[(1S)-1-(4-{4-chloro-2,3,7,10-tetraazatricyclo[7.4.0.0^2,6]trideca-1(9),3,5,7-tetraen-10-yl}phenyl)-2,2,2-trifluoroethyl]-N,3-dimethyl-2-oxo-1,3-oxazolidine-4-carboxamide], for which the IC50 in assay [1] is 0.052 µM; in assay [2], 0.153 µM.
For the molecule `COC(=O)N1CCC(C(=O)N(C)[C@@H](c2ccc(N3CCCc4c3cnc3cc(Cl)nn43)cc2)C(F)(F)F)CC1` [CPD0073691, methyl 4-{[(1S)-1-(4-{4-chloro-2,3,7,10-tetraazatricyclo[7.4.0.0^2,6]trideca-1(9),3,5,7-tetraen-10-yl}phenyl)-2,2,2-trifluoroethyl](methyl)carbamoyl}piperidine-1-carboxylate], the IC50 in assay [1] came to 0.101 µM; in assay [2], 0.149 µM.
With `CN(C(=O)N1CCOCC1)[C@@H](c1ccc(N2CCCc3c2cnc2cc(Cl)nn32)cc1)C(F)(F)F` [CPD0073084, N-[(1S)-1-(4-{4-chloro-2,3,7,10-tetraazatricyclo[7.4.0.0^2,6]trideca-1(9),3,5,7-tetraen-10-yl}phenyl)-2,2,2-trifluoroethyl]-N-methylmorpholine-4-carboxamide], the results for the IC50 in assay [1] and in assay [2] were 0.168 µM and 0.255 µM, respectively.
Regarding `CN(C(=O)C1CCSCC1)[C@@H](c1ccc(N2CCCc3c2cnc2cc(Cl)nn32)cc1)C(F)(F)F` [CPD0019482, N-[(1S)-1-(4-{4-chloro-2,3,7,10-tetraazatricyclo[7.4.0.0^2,6]trideca-1(9),3,5,7-tetraen-10-yl}phenyl)-2,2,2-trifluoroethyl]-N-methylthiane-4-carboxamide], the IC50 in assay [1] turned out to be 0.091 µM; in assay [2] it was 0.146 µM.
On the same counts, the results for `CN(C(=O)[C@@H]1CNC(=O)C1)[C@@H](c1ccc(N2CCCc3c2cnc2cc(Cl)nn32)cc1)C(F)(F)F` (stereo in doubt) [CPD0073565, (3rel-S)—N-[(1S)-1-(4-{4-chloro-2,3,7,10-tetraazatricyclo[7.4.0.0^2,6]trideca-1(9),3,5,7-tetraen-10-yl}phenyl)-2,2,2-trifluoroethyl]-N-methyl-5-oxopyrrolidine-3-carboxamide] are 0.043 µM and 0.101 µM.
`COc1ccc2ncc(Nc3ccc([C@H](N(C)C(=O)[C@H]4CCN(C(=O)CO)C4)C(F)(F)F)cc3)c([C@H](C)OC)c2n1` (relative stereo) [CPD0075882, (3 rel S)-1-(2-hydroxyacetyl)-N-methyl-N-[(1S)-2,2,2-trifluoro-1-[4-[[6-methoxy-4-[(1 rel S)-1-methoxyethyl]-1,5-naphthyridin-3-yl]amino]phenyl]ethyl]pyrrolidine-3-carboxamide]: the figures for the IC50 in assay [1] and in assay [2] were 0.064 µM and 0.04 µM, respectively.
For `COc1ccc2ncc(N(C)c3ccc([C@H](N(C)C(=O)C4CCS(=O)(=O)CC4)C(F)(F)F)cc3)cc2n1` [CPD0021585, N-methyl-1,1-dioxo-N-[(1S)-2,2,2-trifluoro-1-{4-[(6-methoxy-1,5-naphthyridin-3-yl)(methyl)amino]phenyl}ethyl]-1λ^6-thiane-4-carboxamide] the same measures were 0.863 µM and 1.68 µM.
On the same counts, the results for `COc1ccccc1CC(=O)N(C)[C@@H](c1ccc(N2CCCc3c2cnc2cc(Cl)nn32)cc1)C(F)(F)F` [CPD0021561, N-[(1S)-1-(4-{4-chloro-2,3,7,10-tetraazatricyclo[7.4.0.0^2,6]trideca-1(9),3,5,7-tetraen-10-yl}phenyl)-2,2,2-trifluoroethyl]-2-(2-methoxyphenyl)-N-methylacetamide] are 0.063 µM and 0.9 µM.
`CN(C(=O)N1CCS(=O)(=O)CC1)[C@@H](c1ccc(N2CCCc3c2cnc2cc(Cl)nn32)cc1)C(F)(F)F` [CPD0072804, N-[(1S)-1-(4-{4-chloro-2,3,7,10-tetraazatricyclo[7.4.0.0^2,6]trideca-1(9),3,5,7-tetraen-10-yl}phenyl)-2,2,2-trifluoroethyl]-N-methyl-1,1-dioxo-1λ^e-thiomorpholine-4-carboxamide]: the IC50 was found to be 0.159 µM in assay [1] and 0.307 µM in assay [2].
Turning to `CN(C(=O)[C@H]1C[C@H](C(=O)O)C1)[C@@H](c1ccc(N2CCCc3c2cnc2cc(Cl)nn32)cc1)C(F)(F)F` [CPD0072439, (trans)-3-{[(1S)-1-(4-{4-chloro-2,3,7,10-tetraazatricyclo[7.4.0.0^2,6]trideca-1(9),3,5,7-tetraen-10-yl}phenyl)-2,2,2-trifluoroethyl](methyl)carbamoyl}cyclobutane-1-carboxylic acid], the values for the half-inhibitory concentration (IC50) in assay [1] and in assay [2] were 0.035 µM and 0.557 µM, respectively.
On the same counts, the results for `CN(C(=O)[C@H]1CC[S@](=N)(=O)CC1)[C@@H](c1ccc(N2CCC3(CC3)c3c2cnc2cc(F)nn32)cc1)C(F)(F)F` (relative stereo) [CPD0072853, (1rel-r,4rel-r)-1-imino-N-methyl-1-oxo-N-[(1S)-2,2,2-trifluoro-1-(4-{4′-fluoro-2′,3′,7′,10′-tetraazaspiro[cyclopropane-1,13′-tricyclo[7.4.0.0^2,6]tridecane]-1′(9′),3′,5′,7′-tetraen-10′-yl}phenyl)ethyl]-1λ^6-thiane-4-carboxamide] are 0.023 µM and 0.062 µM.
For `COCC(=O)N1CC[C@H](C(=O)N(C)[C@@H](c2ccc(N3CCCc4c3cnc3cc(Cl)nn43)cc2)C(F)(F)F)C1` (relative stereo) [CPD0075874, (3rel-R)-N-[(1S)-1-[4-(4-chloro-2,3,7,10-tetrazatricyclo[7.4.0.0^2,6]trideca-1(9),3,5,7-tetraen-10-yl)phenyl]-2,2,2-trifluoro-ethyl]-1-(2-methoxyacetyl)-N-methyl-pyrrolidine-3-carboxamide] the same measures were 0.095 µM and 0.23 µM.
Consider `C[C@H]1CCN(c2ccc([C@H](N(C)C(=O)[C@H]3CC[S@@](=N)(=O)CC3)C(F)(F)F)cc2)c2cnc3cc(Cl)nn3c21` (relative stereo) [CPD0073194, (1rel-s,4rel-s)-N-[(1S)-1-{4-[(13rel-S)-4-chloro-13-methyl-2,3,7,10-tetraazatricyclo[7.4.0.0^2,6]trideca-1(9),3,5,7-tetraen-10-yl]phenyl}-2,2,2-trifluoroethyl]-1-imino-N-methyl-1-oxo-1λ^6-thiane-4-carboxamide], for which the figures for the IC50 in assay [1] and in assay [2] were 0.02 µM and 0.051 µM, respectively.
On to `CN(C(=O)C1COC1)[C@@H](c1ccc(N2CCCc3c2cnc2cc(Cl)nn32)cc1)C(F)(F)F` [CPD0073083, N-[(1S)-1-(4-{4-chloro-2,3,7,10-tetraazatricyclo[7.4.0.0^2,6]trideca-1(9),3,5,7-tetraen-10-yl}phenyl)-2,2,2-trifluoroethyl]-N-methyloxetane-3-carboxamide], for which the IC50 amounted to 0.09 µM in assay [1] and 0.146 µM in assay [2].
Regarding `CN(C(=O)CC1CCS(=O)(=O)CC1)[C@@H](c1ccc(N2CCCc3c2cnc2cc(Cl)nn32)cc1)C(F)(F)F` [CPD0073088], the IC50 worked out at 0.091 µM in assay [1] and 0.142 µM in assay [2].
On the same counts, the results for `CN(C(=O)[C@H]1CCC(=O)N1)[C@@H](c1ccc(N2CCCc3c2cnc2cc(Cl)nn32)cc1)C(F)(F)F` (relative stereo) [CPD0073567, (2rel-R)-N-[(1S)-1-(4-{4-chloro-2,3,7,10-tetraazatricyclo[7.4.0.0^2,6]trideca-1(9),3,5,7-tetraen-10-yl}phenyl)-2,2,2-trifluoroethyl]-N-methyl-5-oxopyrrolidine-2-carboxamide] are 0.035 µM and 0.119 µM.
For `CN(C(=O)c1cncn1C)[C@@H](c1ccc(N2CCCc3c2cnc2cc(Cl)nn32)cc1)C(F)(F)F` [CPD0019344, N-[(1S)-1-(4-{4-chloro-2,3,7,10-tetraazatricyclo[7.4.0.0^2,6]trideca-1(9),3,5,7-tetraen-10-yl}phenyl)-2,2,2-trifluoroethyl]-N,1-dimethyl-1H-imidazole-5-carboxamide] the same measures were 0.213 µM and 0.295 µM.
For `CN(C(=O)[C@H]1CC[S@](=N)(=O)CC1)[C@@H](c1ccc(N2CCC(C)(C)c3c2cnc2cc(Cl)nn32)cc1)C(F)(F)F` (relative stereo) [CPD0072785, (1rel-r,4rel-r)-N-[(1S)-1-(4-{4-chloro-13,13-dimethyl-2,3,7,10-tetraazatricyclo[7.4.0.0^2,6]trideca-1(9),3,5,7-tetraen-10-yl}phenyl)-2,2,2-trifluoroethyl]-1-imino-N-methyl-1-oxo-1λ^6-thiane-4-carboxamide] the same measures were 0.076 µM and 0.051 µM.
Regarding `CN(C(=O)C1CCS(=O)(=O)CC1)[C@@H](c1ccc(N2CCCc3c2cnc2cc(Cl)nn32)c(F)c1)C(F)(F)F` [CPD0021750, N-[(1S)-1-(4-{4-chloro-2,3,7,10-tetraazatricyclo[7.4.0.0^2,6]trideca-1(9),3,5,7-tetraen-10-yl}-3-fluorophenyl)-2,2,2-trifluoroethyl]-N-methyl-1,1-dioxo-1λ^6-thiane-4-carboxamide], the half-inhibitory concentration (IC50) came out at 0.076 µM in assay [1] and 0.111 µM in assay [2].

As a reminder, the IC50 is the midpoint of a concentration-inhibition curve.

The record behind these values is patent publication US20250051327A1, “MALT-1 MODULATORS” (EXSCIENTIA AI LIMITED, priority 2020, published 2025).
